According to US9402821B2, “Methods and pharmaceutical compositions for treatment of cystic fibrosis” (INSERM (Institut National de la sante et de la Recherche …, priority 2012, dated 2016):
“Also recorded” adds a separate entry of the source. Read-outs that look alike come from different tables or passages of the source.

Columns and labels:
[1] = molecular target: CFTR (Homo sapiens, UniProt P13569); assay: CFTR maturation by Western blot of membrane extracts; format: cell-based; set-up: expressed in transfected cells; conditions: 500 μM
CFTR, sequence (P13569 whole entry): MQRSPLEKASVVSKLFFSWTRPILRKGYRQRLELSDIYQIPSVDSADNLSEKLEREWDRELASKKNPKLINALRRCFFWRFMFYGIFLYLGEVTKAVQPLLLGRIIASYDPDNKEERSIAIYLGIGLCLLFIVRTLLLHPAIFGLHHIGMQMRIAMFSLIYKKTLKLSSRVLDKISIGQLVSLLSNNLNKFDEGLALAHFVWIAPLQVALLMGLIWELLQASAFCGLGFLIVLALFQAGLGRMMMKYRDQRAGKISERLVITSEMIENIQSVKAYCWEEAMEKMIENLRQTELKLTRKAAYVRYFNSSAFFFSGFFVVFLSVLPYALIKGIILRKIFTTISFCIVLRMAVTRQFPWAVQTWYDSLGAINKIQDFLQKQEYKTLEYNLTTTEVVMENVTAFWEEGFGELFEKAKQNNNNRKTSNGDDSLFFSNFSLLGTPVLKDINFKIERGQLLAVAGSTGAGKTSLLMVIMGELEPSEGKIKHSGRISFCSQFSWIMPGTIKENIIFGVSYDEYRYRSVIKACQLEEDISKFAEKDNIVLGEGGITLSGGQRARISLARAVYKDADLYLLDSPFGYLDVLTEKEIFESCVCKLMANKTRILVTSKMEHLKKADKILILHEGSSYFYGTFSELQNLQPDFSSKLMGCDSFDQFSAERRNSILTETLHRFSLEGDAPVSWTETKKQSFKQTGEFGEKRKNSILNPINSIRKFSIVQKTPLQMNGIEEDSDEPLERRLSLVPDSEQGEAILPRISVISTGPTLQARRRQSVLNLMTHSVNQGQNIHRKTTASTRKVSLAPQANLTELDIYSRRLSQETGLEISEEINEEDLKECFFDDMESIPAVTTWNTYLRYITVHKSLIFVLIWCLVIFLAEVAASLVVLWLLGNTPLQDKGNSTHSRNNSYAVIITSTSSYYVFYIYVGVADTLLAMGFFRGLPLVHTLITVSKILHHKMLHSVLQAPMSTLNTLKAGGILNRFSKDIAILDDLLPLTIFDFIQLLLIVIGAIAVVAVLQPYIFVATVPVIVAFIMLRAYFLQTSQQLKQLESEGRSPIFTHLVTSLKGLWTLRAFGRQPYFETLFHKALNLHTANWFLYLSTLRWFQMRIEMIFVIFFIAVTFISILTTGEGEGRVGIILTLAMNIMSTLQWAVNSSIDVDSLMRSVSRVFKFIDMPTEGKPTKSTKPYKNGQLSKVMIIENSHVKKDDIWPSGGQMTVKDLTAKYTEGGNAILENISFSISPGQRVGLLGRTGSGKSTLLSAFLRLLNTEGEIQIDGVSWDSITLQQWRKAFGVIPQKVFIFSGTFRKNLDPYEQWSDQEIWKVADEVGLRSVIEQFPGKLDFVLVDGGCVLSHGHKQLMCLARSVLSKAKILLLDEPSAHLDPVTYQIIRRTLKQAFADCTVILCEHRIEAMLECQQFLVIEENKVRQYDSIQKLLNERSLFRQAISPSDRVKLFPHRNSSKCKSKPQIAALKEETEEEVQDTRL
Protocol: B. Chloride activity in HeLa Wt cells was measured by MQAE assay, after 3 h of treatment by NSAID (500 μM) or diluent. CFTR activity was expressed in rate of UFA/sec, calculated by difference between ((Ft−F0)/t) with CFTR induction and ((Ft−F0)/t) without CFTR induction. […] C. Primary culture of human nasal epithelial cell (HNEC) grown on Snapwell filters (air-liquid interface) were exposed basolaterally to sulindac (500 μM) or vehicle for 2 h and immediately mounted into a voltage-clamp system to bioelectric measurements. Short circuit current was measured with addition of amiloride to evaluated amiloride sensitive transport or with forskolin and IBMX for induced cAMP-dependent Cl secretion.
To study the CFTR protein present at the cell membrane, a protocol of purification by differential centrifugations was used. CFTR wt and delta F508 HeLa cells (2×10^5 cells/cm^2) were lysed with hypotonic lysis buffer (10 mM de KCl, 1 mM de MgCl2, 10 mM Hepes pH 7, 4 and protease inhibitor). Mechanic lysis of cells was realized with minimum 10 strokes of a 26G syringe. Samples were centrifuged 10 min at 3000 g to eliminate cellular fragments and nuclear fraction in the pellet. Then supernatant was centrifuged 45 min at 50 000 g. The pellets with cellular membrane were resolubilized in RIPA buffer.
Aliquots of membrane cell extracts (30 μg protein) were separated by 7% SDS-PAGE and transferred on PVDF membrane. The western blots were probed with mouse monoclonal antibodies specific for CFTR (MM13-4, Millipore) 2 h at room temperature.

[2] = test system: NF-κB transcriptional activity; conditions: CF cells; recent study [5]; cited from earlier work
[3] = test system: IL-8 production; conditions: CF cells; recent study [5]; cited from earlier work
[4] = test system: NF-κB transcriptional activity; assay: NF-κB firefly luciferase reporter assay, TNFα-stimulated cells; format: cell-based; conditions: TNFα 10 ng/ml
Protocol: All cells were transiently transfected by NF-κB firefly luciferase reporter and renilla luciferase reference. A. HeLa control cells (Ctr) were pre-treated with diluent (0.5%) or different doses of sulindac for 1 h and stimulated for 1 h with 10 ng/ml TNFα. After removal of TNFα, cells were incubated for 4 h with sulindac. Luciferase activity was analysed in protein extract. The NF-κB transcriptional activity in cells treated with sulindac+TNFα was expressed in percent of diluent+TNFα. B. Hela cells Wt, DF508 and Ctr were pre-treated with diluent (0.5%), ibuprofen (500 μM) or sulindac (500 μM) for 1 h and stimulated for 1 h with […] TNFα. After removal of TNFα, cells were incubated for 4 h with pharmacological treatment. The NF-κB transcriptional activity in cells treated with ibuprofen+TNFα and sulindac+TNFα was expressed in percent of diluent+TNFα. Results of at least three independent experiments, means±SEM. Unilateral paired t test: * p<0.02
All cells were pre-treated with diluent (0.5%), sulindac ([…]) or sulindac sulfone (250 μM) for 1 h and stimulated for 1 h with 10 ng/ml TNFα. […]
Plasmid Constructs and Transient Transfection To assay the transcriptional activity of NF-κB, pNF-κBLuc, a luciferase reporter plasmid containing five sequential NF-κB binding sites upstream of a minimum promoter element, NF-κB-Luc (Stratagene), was used. Transcriptional activity of the IL-8 promoter was evaluated with reporter constructs consisting of the IL-8 promoter (−133 bp from the transcription start site) fused to the Luciferase gene, kindly provided by Naofumi Mukaida. […]
(§1) Cells were lysed with the Passive Lysis Buffer (Promega), and luciferase activity in the cellular extracts was determined by the Dual Luciferase Assay System (Promega) using a luminometer (Tristar; Berthold). The results were normalized to those obtained with the Renilla luciferase reference plasmid used to control the transfection efficiency, and the values were expressed as luminescence intensity (Luciferase/Renilla). […]
The transcriptional activity of NF-κB and IL-8 promoter was measured as described before. […]

[5] = test system: cyclooxygenase; conditions: cited from earlier work
[6] = test system: IL-8 promoter; assay: IL-8 promoter luciferase reporter / IL-8 mRNA qPCR, TNFα-stimulated cells; format: cell-based; conditions: 250 μM; TNFα 10 ng/ml; HeLa CFTR wt and CFTR DF508 (FIG. 8B)
Protocol: Cells were transiently transfected by the short IL-8 promoter-firefly luciferase reporter and renilla luciferase reference and inflammation was induced by 10 ng/ml TNFα for 1 h. A. HeLa cells were pre-treated with diluent or different doses of sulindac 1 h before inflammation induction and 4 h after. IL-8 promoter activity in cells treated with sulindac+TNFα was expressed in percent of diluent+TNFα. B. After treatment, HeLa Ctr cells were lysed with TRIzol (Invitrogen). Total RNA was extracted, and 1 μg of total RNA was reverse transcribed with a reverse transcription kit. IL-8 mRNA expression was quantified by real-time quantitative PCR (qPCR). The comparative threshold cycle (CT) method was used for relative quantification of PCR products after IL-8 was normalised to TBP (ΔCt=CtIL-8−CtTBP). […] C After treatment, IL-8 in supernatant was measured by ELISA. The IL-8 stimulation of cells treated with test drug +TNFα were expressed as fold compared to drug −TNFα. […]
as §1

Compound | Ratio CFTR C/C + B (%) ([1]; HeLa CFTR WT, Ctr. 65.1) | mature form of CFTR (Western blot) ([1]; WT-CFTR HeLa cells) | transcriptional activity of NF-κB [2] | IL-8 production [3] | transcriptional activity of NF-κB ([4]; BEAS-2B and HeLa cells with wt or deltaF508-CFTR (FIGS. 1A, B)) | inhibition of cyclooxygenase [5] | IL-8 promoter activity [6] | NF-κB transcriptional activity ([4]; 250 μM, HeLa CFTR wt and CFTR DF508 (FIG. 8A))
CC(C)Cc1ccc(C(C)C(=O)O)cc1 (stereo not drawn) [ibuprofen] | 80.6 | significant increase of mature form of CFTR | inhibits the transcriptional activity of NF-κB | not accompanied by a decreased of IL-8 production | inhibits transcriptional activity of NF-κB similar to ibuprofen | – | – | –
CSc1ccc(/C=C2/C(C)=C(CC(=O)O)c3cc(F)ccc32)cc1 [sulindac sulfide] | – | – | – | – | – | inhibits cyclooxygenase activity | – | –
C=S(C)(=O)c1ccc(/C=C2/C(C)=C(CC(=O)O)c3cc(F)ccc32)cc1 (stereo not drawn) [sulindac sulfone] | – | – | – | – | – | inactif on COX; also recorded: does not inhibit cyclooxygenase | at least as effective as sulindac; also recorded: inhibits | inhibits the transcriptional activity of NF-κB
